Data from ChEMBL document CHEMBL1914390, “A new method for induced fit docking (GENIUS) and its application to virtual screening of novel HCV NS3-4A protease inhibitors” (Bioorg Med Chem, 2011).
pEC50, pIC50: −log10 of the molar value.

Tests used:
[1] = Cytotoxicity against human HuH7 cells expressing chimeric gene encoding firefly luciferase and neomycin phosphotransferase assessed as cell viability after 72 hrs by cell titer-glo luminescent assay; type: cell-based, Huh-7
[2] = Inhibition of HCV recombinant N-terminal histidine-tagged NS3/4A protease expressed Escherichia coli using Mca-Asp-Asp-Ile-Val-Pro-Cys-Ser-Met-Lys(Dnp)-Arg-Arg as fluorogenic substrate after 30 mins by FRET assay; parameters: species or system Hepacivirus hominis
[3] = Cytotoxicity against human HuH7 cells expressing chimeric gene encoding firefly luciferase and neomycin phosphotransferase assessed as cell proliferation after 72 hrs by MTT assay; type: cell-based, Huh-7
Hepatitis C virus = test: Antiviral activity against Hepatitis C virus infected in human Huh7/Rep-Feo cells assessed as inhibition of viral replication after 72 hrs by luciferase assay; type: functional, organism-based, Hepacivirus hominis; settings: Huh-7, 72 h
[4] = Selectivity index, ratio of CC50 for human HuH7 cells expressing chimeric gene encoding firefly luciferase and neomycin phosphotransferase by cell titer-glo luminescent cell viability assay to EC50 for HCV; parameters: species or system Huh-7
Hepacivirus hominis [5] = test: Ratio of EC50 for HCV to IC50 for HCV recombinant N-terminal histidine-tagged NS3/4A protease
Hepacivirus hominis [6] = test: Inhibition of HCV recombinant N-terminal histidine-tagged NS3/4A protease expressed Escherichia coli using Mca-Asp-Asp-Ile-Val-Pro-Cys-Ser-Met-Lys(Dnp)-Arg-Arg as fluorogenic substrate at 100 uM after 30 mins by FRET assay
[7] = Selectivity index, ratio of CC50 for human HuH7 cells expressing chimeric gene encoding firefly luciferase and neomycin phosphotransferase by MTT assay to EC50 for HCV; parameters: species or system Huh-7

Row | Compound | CC50 at 72 h [1] [µM] | pIC50 [2] | CC50 at 72 h [3] [µM] | pEC50 (Hepatitis C virus) | Ratio CC50/EC50 [4] | Ratio (Hepacivirus hominis [5]) | inhibition (Hepacivirus hominis [6]) [%] | Ratio CC50/EC50 [7]
1 | COc1ccc(C(=O)Cc2ccc3ccccc3c2/C=N/NC(=O)COc2ccc([N+](=O)[O-])cc2)cc1 | 9 | 4.19 | > 125 | 5.07 | 1.1 |  |  | 
2 | O=C(COc1ccc([N+](=O)[O-])cc1)N/N=C/c1ccccc1OC(=O)c1sc2ccccc2c1Cl | 40 | 5.97 | > 125 | 4.71 | 2.1 | 10 |  | 
3 | COc1cc(/C=N/NC(=O)c2cc3cc([N+](=O)[O-])ccc3o2)cc([N+](=O)[O-])c1OCc1ccc([N+](=O)[O-])cc1 |  | 5.08 |  |  |  |  |  | 
4 | COc1cc(/C=N/NC(=O)c2cc3cc([N+](=O)[O-])ccc3o2)c(C)cc1OCc1ccc([N+](=O)[O-])cc1 |  | 4.77 |  |  |  |  |  | 
5 | CCCOc1ccc(C(=O)Oc2ccc(/C=N/NC(=O)COc3ccc([N+](=O)[O-])cc3)cc2OCC)cc1 |  |  | > 125 | 4.89 |  |  | 38 | >9.6
6 | CC(Oc1ccc([N+](=O)[O-])cc1)C(=O)N/N=C/c1ccccc1OC(=O)c1sc2ccccc2c1Cl (centres undefined) | 19 | 6.00 | > 125 | 4.90 | 1.5 | 10 |  | 
7 | CCOc1cc(/C=N/NC(=O)C(C)Oc2ccc([N+](=O)[O-])cc2)ccc1OC(=O)c1ccc(Cl)cc1Cl (centres undefined) |  |  | > 125 | 4.64 |  |  | 42.9 | >5.4
8 | C=CCc1cc(/N=N/C(=O)c2cc3cc([N+](=O)[O-])ccc3o2)cc(OCC)c1OCc1ccc(Cl)cc1 |  | 5.09 | > 125 | < 3.90 |  |  |  | 
9 | COc1cc(/C=N/NC(=O)COc2ccc([N+](=O)[O-])cc2)ccc1OC(=O)c1sc2ccccc2c1Cl |  | 4.91 | > 125 | 4.03 |  | 10 |  | 
10 | COc1cc(/C=N/NC(=O)C(C)Oc2ccc([N+](=O)[O-])cc2)ccc1OC(=O)c1sc2ccccc2c1Cl (centres undefined) |  | 5.39 | > 125 | 3.92 |  | 10 |  | 
11 | CCc1cc(OCc2ccc([N+](=O)[O-])cc2)c(OC)cc1/C=N/NC(=O)c1cc2cc([N+](=O)[O-])ccc2o1 |  | 4.92 |  |  |  |  |  | 
12 | CCC(C)Oc1ccc(/N=N/C(=O)c2cc3cc([N+](=O)[O-])ccc3o2)cc1Br (centres undefined) | 36 | 4.64 | 57 | 4.87 | 2.6 |  |  | 
13 | COc1cc(/C=N/NC(=O)c2cc3cc([N+](=O)[O-])ccc3o2)ccc1OCc1ccc([N+](=O)[O-])cc1 | > 80 | 5.07 | > 125 | 4.92 | >9.3 |  |  | 
